One data set concerns the target T1, IL-4 (Homo sapiens, UniProt P05112).
T1 construct: purchased Acros Biosystems IL4-H4218; host or cells: HEK-293
T1 sequence (P05112 25-153): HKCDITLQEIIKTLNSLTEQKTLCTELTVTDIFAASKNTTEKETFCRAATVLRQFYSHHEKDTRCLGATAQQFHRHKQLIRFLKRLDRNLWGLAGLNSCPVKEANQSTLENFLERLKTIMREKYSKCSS
The experiment in a line: Surface plasmon resonance binding to IL-4. On the procedure: Surface plasmon resonance was performed on a Biacore S200. Series S Sensor chips were purchased from Cytiva. The running buffer was 1×PBS pH 7.40 with 2% DMSO and 0.1% Tween-20 and the flow rate was kept at 50 μL/min. The SA chip was first activated with 120 μL of 1 M NaCl in 50 mM NaOH followed by a wash of 50% Isopropanol in 1 M NaCl and 50 mM NaOH, 200 μl of a 1 mg/ml solution of Avi-tagged IL-4 in DMSO-free buffer was used to immobilize 7073 RU on the chip surface using the BiacoreS200 software, 100 μl of 50 mM Biocytin was used to block all biotin slides on the sensor chip with manual setting. The system was then primed with running buffer for 7 minutes. […] Analog 15 was diluted in the running buffer and injected for 300 seconds cycles, in an ascending order. The dissociation phase was 600 seconds long. Sensorgram figures were created by exporting the raw data and plotting in Graphpad Prism 9.2.0^48.
In general terms: Surface plasmon resonance follows binding to a sensor surface in real time, without labels.

Data set [1] can be described thus: PAMPA membrane permeability. The note with it: 18 hours incubation. In kind it is in vitro ADME. On the procedure:
PVDF membranes purchased from Bioassay Systems PAMPA-096 were coated with 5 μL of 4% Phosphatidylcholine (Lecithin, MP Biomedicals 0210214780) in dodecane. […] Permeability was calculated by Pv=C×ln (1−ODA/ODE) cm/s, where ODA is the absorbance of acceptor solution minus blank, and ODE the absorbance of the equilibrium standard minus blank, and C=7.72×10^−6 using an 18-hour incubation time.

SMILES strings stand for the structures.

With `N#Cc1c(-c2ccc(O)c(O)c2)cc(-c2ccccc2)[nH]c1=N` [Compound 15, 4-(3,4-dihydroxyphenyl)-2-imino-6-phenyl-1,2-dihydropyridine-3-carbonitrile], the kd on IL-4 (SPR kinetic binding constant) is 8.34 e−04 s^−1. The molecule further came in with a Kd at IL-4 (SPR steady-state affinity analysis) of 31.9 nM. Further, the kon on IL-4 (pH 7.4, read-out: ka) was found to be 26200 M⁻¹ s⁻¹. Further, the Papp at 18 h, 100 μM in data set [1] amounted to 12.7 ×10⁻⁶ cm/s.

Broadly, the Kd is the constant that tells how readily two partners part at equilibrium. The term Papp denotes the rate of passage across a membrane or cell layer, normalised by area and donor concentration.

The values are drawn from patent publication US20250313530A1, “SMALL MOLECULE INHIBITORS OF INTERLEUKIN-4 AND USES THEREOF” (Trustees of Boston University, priority 2024, published 2025).
